{"source": "patent US9481670B2", "about": "“Triazine compounds” (Sphaera Pharma PTE. Ltd., priority 2011, dated 2016)"}
{"biological_target": "T1, PI3K alpha (Homo sapiens, UniProt P42336)", "T1 construct": "purchased Millipore Upstate", "T1 sequence (P42336 whole entry)": "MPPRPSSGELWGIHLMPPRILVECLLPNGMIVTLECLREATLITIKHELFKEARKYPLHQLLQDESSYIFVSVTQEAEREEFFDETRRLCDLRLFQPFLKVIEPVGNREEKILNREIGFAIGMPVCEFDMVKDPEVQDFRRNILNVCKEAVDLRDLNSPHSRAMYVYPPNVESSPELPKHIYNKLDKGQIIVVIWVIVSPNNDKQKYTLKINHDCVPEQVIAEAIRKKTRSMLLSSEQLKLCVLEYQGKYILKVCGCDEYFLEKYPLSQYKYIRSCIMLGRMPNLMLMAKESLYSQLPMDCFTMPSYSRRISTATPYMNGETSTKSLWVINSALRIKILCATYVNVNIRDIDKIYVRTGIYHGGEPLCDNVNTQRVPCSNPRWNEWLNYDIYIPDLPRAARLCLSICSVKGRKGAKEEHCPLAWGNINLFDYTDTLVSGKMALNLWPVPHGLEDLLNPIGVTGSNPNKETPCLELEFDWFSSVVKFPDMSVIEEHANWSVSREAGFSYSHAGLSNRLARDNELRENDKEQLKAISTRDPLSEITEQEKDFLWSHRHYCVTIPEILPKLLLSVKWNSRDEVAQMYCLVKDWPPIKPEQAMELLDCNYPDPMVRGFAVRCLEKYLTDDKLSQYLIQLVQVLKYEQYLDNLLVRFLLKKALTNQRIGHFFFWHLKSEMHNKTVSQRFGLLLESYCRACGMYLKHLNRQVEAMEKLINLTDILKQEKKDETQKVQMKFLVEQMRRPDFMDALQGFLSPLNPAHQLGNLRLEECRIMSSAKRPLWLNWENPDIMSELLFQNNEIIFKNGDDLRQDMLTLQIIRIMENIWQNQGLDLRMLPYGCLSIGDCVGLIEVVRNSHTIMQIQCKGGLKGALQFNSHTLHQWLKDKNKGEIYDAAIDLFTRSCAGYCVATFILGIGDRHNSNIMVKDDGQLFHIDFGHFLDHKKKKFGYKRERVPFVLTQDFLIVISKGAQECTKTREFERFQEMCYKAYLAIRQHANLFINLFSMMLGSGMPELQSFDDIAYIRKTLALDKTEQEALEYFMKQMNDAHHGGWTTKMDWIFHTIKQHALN", "T1 sequence (P27986 whole entry partner)": "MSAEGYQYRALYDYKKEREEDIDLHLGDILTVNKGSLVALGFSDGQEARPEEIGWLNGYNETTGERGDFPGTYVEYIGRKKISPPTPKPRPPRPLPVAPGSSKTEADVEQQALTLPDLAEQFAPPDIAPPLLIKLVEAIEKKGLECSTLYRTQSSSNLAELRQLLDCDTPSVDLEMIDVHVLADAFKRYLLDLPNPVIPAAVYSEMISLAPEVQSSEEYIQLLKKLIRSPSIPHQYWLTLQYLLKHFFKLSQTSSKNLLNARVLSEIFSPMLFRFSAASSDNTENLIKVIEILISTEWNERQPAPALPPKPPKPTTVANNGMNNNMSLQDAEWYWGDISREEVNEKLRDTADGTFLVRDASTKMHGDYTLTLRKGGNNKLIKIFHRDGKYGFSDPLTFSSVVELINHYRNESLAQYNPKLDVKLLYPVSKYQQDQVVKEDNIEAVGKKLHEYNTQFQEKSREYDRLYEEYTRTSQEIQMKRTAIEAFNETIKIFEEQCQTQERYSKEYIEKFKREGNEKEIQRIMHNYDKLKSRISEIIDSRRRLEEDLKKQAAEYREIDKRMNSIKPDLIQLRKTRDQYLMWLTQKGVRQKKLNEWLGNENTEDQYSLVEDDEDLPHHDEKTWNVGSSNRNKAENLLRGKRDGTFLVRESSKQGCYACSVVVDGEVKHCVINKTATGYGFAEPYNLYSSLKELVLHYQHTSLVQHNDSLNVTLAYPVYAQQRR", "test": "P110 Alpha TR-FRET Assay (PI3K alpha kinase assay, HTRF Transcreener ADP Assay)", "assay_type": "biochemical", "conditions": "PI3K (WT)", "experimental": "PI3K alpha kinase assay may be done using HTRF Transcreener ADP Assay (Cisbio).\nComposition of the reaction buffer was as follows 50 mM HEPES, pH 7.5, 5 mM MgCl2, 1 mM DTT, 30 μM Na3VO4. PI3 Kinase was procured from Millipore Upstate. […] ATP was used at final concentration of 10 μM. Corning 384 well white plates were used for the assay.\n2 μl of diluted enzyme (50 ng), 3 μl of diluted compound and 5 μl of buffer were added, mixed then incubated for 20 minutes with shaking at 400 rpm. 3 μl of substrate (10 μM of ATP and 5 μM PIP2) were added to initiate the reaction. The samples were incubated for 20 min. At the end of the reaction time 10 μl of the Detection mix (5 μl of ADP-D2 and 5 μl of Anti-ADP-Cryptate) was added and the contents were incubated for 1 h. The reaction plate was directly read in an Envision Multilabel Plate Reader.", "units": {"IC50": "µM"}}
{"smiles": "CN(C)C(=O)N1CC[C@H](COc2nc(-c3ccc(N)nc3)nc(N3CCOCC3)n2)C1", "note": "[Compound 1025, 3-21-({[4-3-(6-16-aminopyridin-3-yl)-6-5-(morpholin-4-yl)-1,3,5-triazin-2-yl]oxy}methyl)-N,N-dimethylpyrrolidine-1-carboxamide]", "IC50": "< 5"}
{"smiles": "CN(C)C(=O)N1CC[C@H](Oc2nc(-c3ccc(N)nc3)nc(N3CCOCC3)n2)C1", "note": "[Compound 1026, 3-19-{[4-3-(6-16-aminopyridin-3-yl)-6-5-(morpholin-4-yl)-1,3,5-triazin-2-yl]oxy}-N,N-dimethylpyrrolidine-1-carboxamide]", "IC50": "< 5"}
{"smiles": "CN(C)C(=O)c1ccc(Oc2nc(-c3ccc(N)nc3)nc(N3CCOCC3)n2)cc1", "note": "[Compound 1027, 4-14-{[4-1-(6-17-aminopyridin-3-yl)-6-5-(morpholin-4-yl)-1,3,5-triazin-2-yl]oxy}-N,N-dimethylbenzamide]", "IC50": "< 5"}
{"smiles": "CN(C)C(=O)N1CCC(Oc2nc(-c3ccc(N)nc3)nc(N3CCOCC3)n2)CC1", "note": "[Compound 1028, 4-20-{[4-1-(6-11-aminopyridin-3-yl)-6-5-(morpholin-4-yl)-1,3,5-triazin-2-yl]oxy}-N,N-dimethylpiperidine-1-carboxamide]", "IC50": "< 5"}
{"smiles": "CN(C)C(=O)c1ccc(Oc2nc(-c3ccc(F)nc3)nc(N3CCOCC3)n2)cc1", "note": "[Compound 1029, 4-14-{[4-1-(6-17-fluoropyridin-3-yl)-6-5-(morpholin-4-yl)-1,3,5-triazin-2-yl]oxy}-N,N-dimethylbenzamide]", "IC50": "< 5"}
{"smiles": "CN(C)C(=O)c1ccc(Oc2nc(-c3cccc(O)c3)nc(N3CCOCC3)n2)cc1", "note": "[Compound 1030, 4-14-{[4-1-(3-21-hydroxyphenyl)-6-5-(morpholin-4-yl)-1,3,5-triazin-2-yl]oxy}-N,N-dimethylbenzamide]", "IC50": "< 5"}
{"smiles": "CN(C)C(=O)c1ccc(Oc2nc(-c3ccc(N)cc3)nc(N3CCOCC3)n2)cc1", "note": "[Compound 1031, 4-14-{[4-1-(4-17-aminophenyl)-6-5-(morpholin-4-yl)-1,3,5-triazin-2-yl]oxy}-N,N-dimethylbenzamide]", "IC50": "< 5"}
{"smiles": "CN(C)C(=O)c1ccc(Oc2nc(-c3cncc(N)c3)nc(N3CCOCC3)n2)cc1", "note": "[Compound 1032, 4-14-{[4-1-(5-26-aminopyridin-3-yl)-6-5-(morpholin-4-yl)-1,3,5-triazin-2-yl]oxy}-N,N-dimethylbenzamide]", "IC50": "< 5"}
{"smiles": "CN(C)C(=O)c1ccc(Oc2nc(-c3cccc4c(=O)[nH]ccc34)nc(N3CCOCC3)n2)cc1", "note": "[Compound 1033, N,N-dimethyl-4-14-{[4-5-(morpholin-4-yl)-6-1-(1-30-oxo-1,2-dihydroisoquinolin-5-yl)-1,3,5-triazin-2-yl]oxy}benzamide]", "IC50": "> 5"}
{"smiles": "CN(C)C(=O)c1ccc(Oc2nc(-c3cccc4[nH]c(=O)[nH]c34)nc(N3CCOCC3)n2)cc1", "note": "[Compound 1034, N,N-dimethyl-4-14-{[4-5-(morpholin-4-yl)-6-1-(2-21-oxo-2,3-dihydro-1H-1,3-benzodiazol-4-yl)-1,3,5-triazin-2-yl]oxy}benzamide]", "IC50": "> 5"}
{"smiles": "CN(C)C(=O)[C@H]1CC[C@H](Oc2nc(-c3ccc(N)nc3)nc(N3CCOCC3)n2)CC1", "note": "[Compound 1035, (1r,4r)-4-9-{[4-1-(6-12-aminopyridin-3-yl)-6-5-(morpholin-4-yl)-1,3,5-triazin-2-yl]oxy}-N,N-dimethylcyclohexane-1-carboxamide]", "IC50": "< 5"}
{"smiles": "CN(C)C(=O)c1ccc(Oc2nc(-c3ccnc(N)c3)nc(N3CCOCC3)n2)cc1", "note": "[Compound 1036, 4-14-{[4-1-(2-26-aminopyridin-4-yl)-6-5-(morpholin-4-yl)-1,3,5-triazin-2-yl]oxy}-N,N-dimethylbenzamide]", "IC50": "< 5"}
{"smiles": "Nc1ccc(-c2nc(SCc3ccccc3)nc(N3CCOCC3)n2)cn1", "note": "[Compound 1037, 5-(4-(benzylthio)-6-morpholino-1,3,5-triazin-2-yl)pyridin-2-amine]", "IC50": "< 5"}
{"smiles": "CN(C)C(=O)c1ccc(Oc2nc(-c3cccc4[nH]ncc34)nc(N3CCNC(=O)CC3)n2)cc1", "note": "[Compound 1038, 4-7-{[4-5-(1H-indazol-4-yl)-6-3-(5-31-oxo-1,4-diazepan-1-yl)-1,3,5-triazin-2-yl]oxy}-N,N-dimethylbenzamide]", "IC50": "> 5"}
{"smiles": "CN(C)C(=O)c1ccc(Oc2nc(-c3cccc4[nH]ncc34)nc(N3CCCC(C(N)=O)C3)n2)cc1", "note": "(stereo not drawn) [Compound 1039, 1-27-{4-1-[4-10-(dimethylcarbamoyl)phenoxy]-6-5-(1H-indazol-4-yl)-1,3,5-triazin-2-yl}piperidine-3-carboxamide]", "IC50": "> 5"}
{"smiles": "CN(C)C(=O)c1cccc(Nc2nc(-c3cnc(N)nc3)nc(N3CCOCC3)n2)c1", "note": "[Compound 1040, 3-((4-(2-aminopyrimidin-5-yl)-6-morpholino-1,3,5-triazin-2-yl)amino)-N,N-dimethylbenzamide]", "IC50": "< 5"}
{"smiles": "CN(C)C(=O)c1ccc(Oc2nc(-c3cnc4[nH]ccc4c3)nc(N3CCOCC3)n2)cc1", "note": "[Compound 1041, N,N-dimethyl-4-8-{[4-5-(morpholin-4-yl)-6-1-{1H-pyrrolo[2,3-b]pyridin-5-yl}-1,3,5-triazin-2-yl]oxy}benzamide]", "IC50": "< 5"}
{"smiles": "Nc1ncc(-c2nc(N3CCOCC3)nc(N3CCOCC3)n2)s1", "note": "[Compound 1042, 5-7-[4-3,6-5-bis(morpholin-4-yl)-1,3,5-triazin-2-yl]-1,3-thiazol-2-amine]", "IC50": "< 5"}
{"smiles": "CN(C)C(=O)c1ccc(Oc2nc(-c3cccc4[nH]ncc34)nc(N3CCOc4ccccc43)n2)cc1", "note": "[Compound 1043, 4-9-{[4-5-(3,4-dihydro-2H-1,4-benzoxazin-4-yl)-6-1-(1H-indazol-4-yl)-1,3,5-triazin-2-yl]oxy}-N,N-dimethylbenzamide]", "IC50": "> 5"}
{"smiles": "CN(C)C(=O)c1ccc(Oc2nc(-c3cccc4[nH]ncc34)nc(N3CCC(=O)CC3)n2)cc1", "note": "[Compound 1044, 4-8-{[4-5-(1H-indazol-4-yl)-6-3-(4-30-oxopiperidin-1-yl)-1,3,5-triazin-2-yl]oxy}-N,N-dimethylbenzamide]", "IC50": "> 5"}
{"smiles": "Cc1nc(N2CCOCC2)nc(N2CCOCC2)n1", "note": "[Compound 1045, 2-1-methyl-4-5,6-3-bis(morpholin-4-yl)-1,3,5-triazine]", "IC50": "> 5"}
{"smiles": "NC(=O)c1cccc(Nc2nc(-c3cnc(N)nc3)nc(N3CCOCC3)n2)c1", "note": "[Compound 1046, 3-((4-(2-aminopyrimidin-5-yl)-6-morpholino-1,3,5-triazin-2-yl)amino)benzamide]", "IC50": "< 5"}
{"smiles": "CN(C)C(=O)c1ccc(Oc2nc(-c3cccc4[nH]ncc34)nc(N3CC(C(N)=O)C3)n2)cc1", "note": "[Compound 1047, 1-7-{4-1-[4-11-(dimethylcarbamoyl)phenoxy]-6-5-(1H-indazol-4-yl)-1,3,5-triazin-2-yl}azetidine-3-carboxamide]", "IC50": "> 5"}
{"smiles": "CS(=O)(=O)N[C@H]1CCC[C@H](Oc2nc(-c3cccc4c3cnn4S(C)(=O)=O)nc(N3CCOCC3)n2)C1", "note": "[Compound 1048, N-[(1S,3S)-3-14-{[4-1-(1-27-methanesulfonyl-1H-indazol-4-yl)-6-5-(morpholin-4-yl)-1,3,5-triazin-2-yl]oxy}cyclohexyl]methanesulfonamide]", "IC50": "< 5"}
{"smiles": "CN(C)C(=O)N1CCN(Cc2nc(-c3ccc(N)nc3)nc(N3CCOCC3)n2)CC1", "note": "[Compound 1049, 4-((4-(6-aminopyridin-3-yl)-6-morpholino-1,3,5-triazin-2-yl)methyl)-N,N-dimethylpiperazine-1-carboxamide]", "IC50": "< 5"}
{"smiles": "CN(C)C(=O)c1ccc(Oc2nc(-c3cccc4[nH]nnc34)nc(N3CCOCC3)n2)cc1", "note": "[Compound 1050, 4-14-{[4-1-(1H-1,2,3-benzotriazol-4-yl)-6-5-(morpholin-4-yl)-1,3,5-triazin-2-yl]oxy}-N,N-dimethylbenzamide]", "IC50": "> 5"}
{"smiles": "Nc1ncc(-c2nc(N3CCOCC3)nc(N3CCNC(=O)CC3)n2)cn1", "note": "[Compound 1051, 1-6-[4-1-(2-22-aminopyrimidin-5-yl)-6-5-(morpholin-4-yl)-1,3,5-triazin-2-yl]-1,4-diazepan-5-one]", "IC50": "< 5"}
{"smiles": "CN(C)C(=O)c1ccc(Oc2nc(-c3ccc4[nH]ccc4c3)nc(N3CCOCC3)n2)cc1", "note": "[Compound 1052, 4-14-{[4-1-(1H-indol-5-yl)-6-5-(morpholin-4-yl)-1,3,5-triazin-2-yl]oxy}-N,N-dimethylbenzamide]", "IC50": "< 5"}
{"smiles": "Nc1ncc(-c2nc(N3CCOCC3)nc(N3CCN(S(N)(=O)=O)CC3)n2)cn1", "note": "[Compound 1053, 4-6-[4-1-(2-16-aminopyrimidin-5-yl)-6-5-(morpholin-4-yl)-1,3,5-triazin-2-yl]piperazine-1-sulfonamide]", "IC50": "< 5"}
{"smiles": "O=C1CCc2ccc(Oc3nc(-c4cccc5[nH]ncc45)nc(N4CCOCC4)n3)cc2N1", "note": "[Compound 1054, 7-14-{[4-1-(1H-indazol-4-yl)-6-5-(morpholin-4-yl)-1,3,5-triazin-2-yl]oxy}-1,2,3,4-tetrahydroquinolin-2-one]", "IC50": "< 5"}
{"smiles": "CN(C)C(=O)c1ccc(Oc2nc(-c3cccc4[nH]ncc34)nc(N3CC4(COC4)C3)n2)cc1", "note": "[Compound 1055, 4-8-{[4-5-(1H-indazol-4-yl)-6-3-{2-oxa-6-azaspiro[3.3]heptan-6-yl}-1,3,5-triazin-2-yl]oxy}-N,N-dimethylbenzamide]", "IC50": "> 5"}
{"smiles": "CN(C)C(=O)c1cccc(Nc2nc(-c3cccc4[nH]ncc34)nc(N3CC(C(N)=O)C3)n2)c1", "note": "[Compound 1056]", "IC50": "> 5"}
{"smiles": "CN(C)C(=O)c1ccc(Oc2nc(NC3CCOCC3)nc(-c3cccc4[nH]ncc34)n2)cc1", "note": "[Compound 1057, 4-((4-(1H-indazol-4-yl)-6-((tetrahydro-2H-pyran-4-yl)amino)-1,3,5-triazin-2-yl)oxy)-N,N-dimethylbenzamide]", "IC50": "> 5"}
